Data from ChEMBL document CHEMBL3046781, “Resistance of Helicoverpa assulta (Guenée) (Lepidoptera: Noctuidae) to fenvalerate, phoxim and methomyl in China” (2009).

Tests used:
Type in all cases: functional
Helicoverpa assulta [1] = experiment: Insecticidal activity against sixth-instar larvae of Helicoverpa assulta YN6 at 1.8 to 183360 mg/l after 48 hr by chi-squared analysis
Helicoverpa assulta [2] = experiment: Resistance factor, ratio of LD50 for sixth-instar larvae of Helicoverpa assulta YN2 to LD50 for sixth-instar larvae of Helicoverpa assulta at 1.8 to 183360 mg/l
Helicoverpa assulta [3] = experiment: Insecticidal activity against sixth-instar larvae of Helicoverpa assulta YN2 at 1.8 to 183360 mg/l after 48 hr by chi-squared analysis
Helicoverpa assulta [4] = experiment: Resistance factor, ratio of LD50 for sixth-instar larvae of Helicoverpa assulta GZ3 to LD50 for sixth-instar larvae of Helicoverpa assulta at 1.8 to 183360 mg/l
Helicoverpa assulta [5] = experiment: Resistance factor, ratio of LD50 for sixth-instar larvae of Helicoverpa assulta FJ3 to LD50 for sixth-instar larvae of Helicoverpa assulta at 1.8 to 183360 mg/l
Helicoverpa assulta [6] = experiment: Resistance factor, ratio of LD50 for sixth-instar larvae of Helicoverpa assulta GZ5 to LD50 for sixth-instar larvae of Helicoverpa assulta at 1.8 to 183360 mg/l
Helicoverpa assulta [7] = experiment: Resistance factor, ratio of LD50 for sixth-instar larvae of Helicoverpa assulta HB2 to LD50 for sixth-instar larvae of Helicoverpa assulta at 1.8 to 183360 mg/l
Helicoverpa assulta [8] = experiment: Insecticidal activity against sixth-instar larvae of Helicoverpa assulta FJ2 at 39 to 12630 mg/l after 48 hr by chi-squared analysis
Helicoverpa assulta [9] = experiment: Insecticidal activity against sixth-instar larvae of Helicoverpa assulta YN5 at 39 to 12630 mg/l after 48 hr by chi-squared analysis
Helicoverpa assulta [10] = experiment: Resistance factor, ratio of LD50 for sixth-instar larvae of Helicoverpa assulta GZ4 to LD50 for sixth-instar larvae of Helicoverpa assulta at 39 to 12630 mg/l
Helicoverpa assulta [11] = experiment: Insecticidal activity against sixth-instar larvae of Helicoverpa assulta GZ1 at 39 to 12630 mg/l after 48 hr by chi-squared analysis
Helicoverpa assulta [12] = experiment: Resistance factor, ratio of LD50 for sixth-instar larvae of Helicoverpa assulta YN2 to LD50 for sixth-instar larvae of Helicoverpa assulta at 39 to 12630 mg/l
Helicoverpa assulta [13] = experiment: Insecticidal activity against sixth-instar larvae of Helicoverpa assulta GZ5 at 39 to 12630 mg/l after 48 hr by chi-squared analysis
Helicoverpa assulta [14] = experiment: Resistance factor, ratio of LD50 for sixth-instar larvae of Helicoverpa assulta SD2 to LD50 for sixth-instar larvae of Helicoverpa assulta at 39 to 12630 mg/l

Row | SMILES | LD90 (Helicoverpa assulta [1]) [µg/g] | LD50 (Helicoverpa assulta [1]; Helicoverpa assulta, YN6, 48 h) [mg/kg] | Ratio (Helicoverpa assulta [2]) | LD90 (Helicoverpa assulta [3]) [µg/g] | LD50 (Helicoverpa assulta [3]; Helicoverpa assulta, YN2, 48 h) [mg/kg] | Ratio (Helicoverpa assulta [4]) | Ratio (Helicoverpa assulta [5]) | Ratio (Helicoverpa assulta [6]) | Ratio (Helicoverpa assulta [7]) | LD90 (Helicoverpa assulta [8]) [µg/g] | LD50 (Helicoverpa assulta [8]; Helicoverpa assulta, FJ2, 48 h) [mg/kg] | LD90 (Helicoverpa assulta [9]) [µg/g] | LD50 (Helicoverpa assulta [9]; Helicoverpa assulta, YN5, 48 h) [mg/kg] | Ratio (Helicoverpa assulta [10]) | LD90 (Helicoverpa assulta [11]) [µg/g] | LD50 (Helicoverpa assulta [11]; Helicoverpa assulta, GZ1, 48 h) [mg/kg] | Ratio (Helicoverpa assulta [12]) | LD90 (Helicoverpa assulta [13]) [µg/g] | LD50 (Helicoverpa assulta [13]; Helicoverpa assulta, GZ5, 48 h) [mg/kg] | Ratio (Helicoverpa assulta [14])
1 | CC(C)C(C(=O)OC(C#N)c1cccc(Oc2ccccc2)c1)c1ccc(Cl)cc1 (stereo not given) [FENVALERATE] | 1467 | 667 | 1313 | 673 | 213 | 824 | 9.06 | 189 | 28.5 |  |  |  |  |  |  |  |  |  |  | 
2 | CCOP(=S)(OCC)O/N=C(\C#N)c1ccccc1 [PHOXIM] |  |  |  |  |  |  |  |  |  | 86.5 | 22 | 83.8 | 25.7 | 7.89 | 124 | 33.3 | 14.9 | 33.7 | 16.6 | 7.37
